Test results from patent US20250255793A1, “ANTI-AGING CATALYST COMPOSITION COMPRISING A BLEND OF COSMETIC ACIDS” (LOREAL, priority 2024, published 2025).

Columns and labels:
[1] = system: diabetic precataractous lens; details: dietary taurine supplementation; cited from earlier work
[2] = system: UVB-induced wrinkle formation; details: oral taurine supplementation; cited from earlier work
keratinocytes = assay: Taurine induced NAD+ stimulation in cultured keratinocytes; assay type: cell-based; details: for NAD+ level: keratinocytes
Description: Cell studies were conducted in which the effects of taurine and niacinamide on the NAD+ production were assessed when keratinocytes were cultured with these raw materials. In all of the tested conditions supplemented with actives, the NAD+ of the cells were increased compared to the untreated control.
Taurine has been identified as an active of interest for skin care due to its potential benefits to boost cell energy. This report explores the effect of supplementing taurine with keratinocytes to understand its effect on increasing NAD+ level in the cells. […] In our in vitro study, we observed that vitamin C, vitamin E and ferulic acid imparts significant benefits to the cell cycle and cell division. When combined with anti-aging catalyst composition, the treatment not only enhances skin renewal and resurfacing benefits but also maintains the positive effects on cell cycle and cell division. This is evident in the more pronounced impact on pathways related to skin cornification and epidermis development compared to single type treatment.

Row | SMILES | MDA levels, GSSG/GSH, and NAD+/NADH [1] | UVB-induced wrinkle formation [2] | NAD+ level (keratinocytes; 0.05% taurine) | NAD+ of the cells compared to the untreated control (keratinocytes; keratinocytes cultured with raw material) | NAD+ level (keratinocytes; 0.2% niacinamide)
1 | NCCS(=O)(=O)O [taurine] | ameliorates | suppress | comparable NAD+ level as compared to 0.2% niacinamide | stimulatory effect in increasing the NAD+ level | –
2 | NC(=O)c1cccnc1 [niacinamide, reference compound] | – | – | – | – | higher level of NAD+ compared to 0.05% niacinamide
